Test results published in patent publication US9611252B2 (LifeSci Pharmaceuticals, Inc., priority 2013, dated 2017).
Where two headings read alike, the source gives them in different places.

Key:
human Plasma Kallikrein = human Plasma Kallikrein (Homo sapiens (Human), UniProt P03952); assay: In vitro enzyme inhibition of human plasma kallikrein (PFR-AMC cleavage); format: biochemical; settings: human plasma kallikrein, Pro-Phe-Arg-AMC substrate, 37° C.; read-out: hPK IC50
Summary of the method: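 Compound pre-incubated with human plasma kallikrein 5 min at 37° C in 50 mM Tris-HCl pH 7.5, 150 mM NaCl, 0.01% Triton X-100. Reaction started with PFR-AMC, cleavage read kinetically at 37° C every 43 s for 1 h.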

kallikrein = kallikrein (Homo sapiens (Human), UniProt P03952); assay: In vitro cellular assay (contact assay): kallikrein activity in ellagic acid-activated human plasma, substrate Z-FR-2-AMC; format: biochemical
Sequence of kallikrein (P03952 20-638): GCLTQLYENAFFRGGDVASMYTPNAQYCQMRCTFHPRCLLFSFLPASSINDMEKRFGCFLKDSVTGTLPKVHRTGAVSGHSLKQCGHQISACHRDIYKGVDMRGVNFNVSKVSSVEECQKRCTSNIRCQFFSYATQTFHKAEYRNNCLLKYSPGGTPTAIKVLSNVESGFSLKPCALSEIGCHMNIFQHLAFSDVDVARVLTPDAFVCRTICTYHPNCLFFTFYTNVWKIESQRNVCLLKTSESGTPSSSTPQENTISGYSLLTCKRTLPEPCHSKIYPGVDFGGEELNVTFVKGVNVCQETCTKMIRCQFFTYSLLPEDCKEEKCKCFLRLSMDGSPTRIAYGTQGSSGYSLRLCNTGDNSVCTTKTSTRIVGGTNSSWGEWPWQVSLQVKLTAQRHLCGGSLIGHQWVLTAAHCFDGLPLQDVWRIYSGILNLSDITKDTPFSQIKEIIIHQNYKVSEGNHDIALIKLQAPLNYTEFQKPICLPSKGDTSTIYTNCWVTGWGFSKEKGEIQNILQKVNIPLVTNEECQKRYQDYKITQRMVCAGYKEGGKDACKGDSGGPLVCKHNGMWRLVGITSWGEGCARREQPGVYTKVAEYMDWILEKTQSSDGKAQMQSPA
Protocol: The ability of the compounds disclosed herein to inhibit cellular kallikrein activity was quantified and the respective EC50 value was determined.
All dilutions were prepared in an assay buffer comprising 50 mM Tris-HCl pH 7.2, 150 mM NaCl, and 0.01% Triton X-100.
The ten solutions of the test compounds, prepared by serial dilution, were further diluted 50-fold in the assay buffer.
Human plasma is thawed on ice and centrifuged for 15 min at 4° C. to remove platelets. A 1 mM stock solution of ellagic acid is diluted to 8 μM and mixed with human plasma, after removing platelets, at a ratio of 1:0.8.
A 22.5 μL volume of the final mixture of human plasma and ellagic acid was added to a 96-well microwell plate and the plate was incubated for 15 min at 37° C.
The CINH inhibitor at various concentrations, prepared by serial dilutions as described above, were added to the inhibitor control wells. […] Each CINH concentration is tested in duplicates.
The test compounds at various concentrations, also prepared by serial dilutions as described above, are added to the test wells. […] Each test compound concentration was tested in duplicates.
In addition to the inhibitor control and test wells, the 96 well assay plate includes positive control wells which contained the mixture of human plasma and ellagic acid without C1NH inhibitor or test compounds, and background wells which contained neither the mixture of human plasma and ellagic acid nor the test compounds. The total volume of liquid in positive control and background wells was brought up to 35 μL, using the assay buffer.
The assay plate containing C1NH inhibitors and test compounds mixed with human plasma and ellagic acid and appropriate controls was incubated at 37° C. for 5 min. […] The reagents were mixed well by shaking the plate gently for 30 sec.
The enzyme reaction was quantified by immediate kinetic reading of the assay plate using excitation/emission wavelengths of 330 nm/440 nm respectively. Fluorescence intensity was recorded for 60 min, using a time interval of 43 sec.
The inhibition activity of the test compounds were evaluated using the IC50 values, calculated according to the dose-response curve of the test compounds, fitted using the “log(inhibitor)-response (variable slope)” equation in GraphPadPrism software (GraphPad Software, Inc.).
The percentage inhibition was calculated using the following equation:
[formula] where, Mean(BG) is the average value of the fluorescence intensity of the background wells and Mean(PC) is the average value of the fluorescence intensity of the positive control wells.
Table 4 provides the EC50 values of various compounds disclosed herein.

[1] = human plasma activated with ellagic acid, Z-FR-2-AMC substrate, 37° C., read-out: Contact Assay EC50

Sequence of human Plasma Kallikrein (P03952 20-638): as above

SMILES	IC50 (human Plasma Kallikrein)	EC50 (kallikrein; [1])	EC50 (kallikrein)
Cc1cnc2c(S(C)(=O)=O)cc(Cc3cc(C(=O)NCc4c(C)cc(N)nc4C)ccn3)cc2c1 [Example 15, N-((6-amino-2,4-dimethylpyridin-3-yl)methyl)-2-((3-methyl-8-(methylsulfonyl)quinolin-6-yl)methyl)isonicotinamide]	< 100 nM	< 100 nM	–
Cc1cnc2c(S(C)(=O)=O)cc(Cc3cc(C(=O)NCc4ccc5c(N)nccc5c4)ccn3)cc2c1 [Example 16, N-((1-aminoisoquinolin-6-yl)methyl)-2-((3-methyl-8-(methylsulfonyl)quinolin-6-yl)methyl)isonicotinamide]	< 100 nM	< 100 nM	–
Cc1cnc2c(S(C)(=O)=O)cc(Cc3cc(C(=O)NCc4cc5c(Cl)c[nH]c5cc4F)ccn3)cc2c1 [Example 17, N-((3-chloro-6-fluoro-1H-indol-5-yl)methyl)-2-((3-methyl-8-(methylsulfonyl)quinolin-6-yl)methyl)isonicotinamide]	< 100 nM	< 100 nM	–
Cc1cnc2c(S(C)(=O)=O)cc(Cc3cc(C(=O)NCc4cc5cc[nH]c5cc4F)ccn3)cc2c1 [Example 18, N-((6-fluoro-1H-indol-5-yl)methyl)-2-((3-methyl-8-(methylsulfonyl)quinolin-6-yl)methyl)isonicotinamide]	< 100 nM	100 to 1000 nM	–
Cc1cnc2c(S(C)(=O)=O)cc(Cc3cc(C(=O)NCc4cnc5[nH]cc(Cl)c5c4)ccn3)cc2c1 [Example 19, N-((3-chloro-1H-pyrrolo[2,3-b]pyridin-5-yl)methyl)-2-((3-methyl-8-(methylsulfonyl)quinolin-6-yl)methyl)isonicotinamide]	< 100 nM	< 100 nM	–
Cc1cnc2c(S(C)(=O)=O)cc(Cc3cc(C(=O)NCc4n[nH]c5ccc(Cl)cc45)ccn3)cc2c1 [Example 20, N-((5-chloro-1H-indazol-3-yl)methyl)-2-((3-methyl-8-(methylsulfonyl)quinolin-6-yl)methyl)isonicotinamide]	< 100 nM	< 100 nM	–
Cc1cnc2c(S(C)(=O)=O)cc(Cc3cc(C(=O)NCc4ccc5[nH]cc(Cl)c5c4F)ccn3)cc2c1 [Example 21, N-((3-chloro-4-fluoro-1H-indol-5-yl)methyl)-2-((3-methyl-8-(methylsulfonyl)quinolin-6-yl)methyl)isonicotinamide]	< 100 nM	< 100 nM	–
Nc1nccc2cc(CNC(=O)c3ccnc(Cc4ccc5ncc(Cl)cc5c4)c3)ccc12 [Example 31, N-((1-aminoisoquinolin-6-yl)methyl)-2-((3-chloroquinolin-6-yl)methyl)isonicotinamide]	< 100 nM	< 100 nM	–
O=C(NCc1cc2c(Cl)c[nH]c2cc1F)c1ccnc(Cc2ccc3ncc(Cl)cc3c2)c1 [Example 33, N-((3-chloro-6-fluoro-1H-indol-5-yl)methyl)-2-((3-chloroquinolin-6-yl)methyl)isonicotinamide]	< 100 nM	100 to 1000 nM	–
Cc1nc(N)ccc1CNC(=O)c1ccnc(Cc2ccc3ncc(Cl)cc3c2)c1 [Example 34, N-((6-amino-2-methylpyridin-3-yl)methyl)-2-((3-chloroquinolin-6-yl)methyl)isonicotinamide]	< 100 nM	< 100 nM	–
Cc1cc(N)nc(C)c1CNC(=O)c1ccnc(Cc2ccc3ncc(Cl)cc3c2)c1 [Example 35, N-((6-amino-2,4-dimethylpyridin-3-yl)methyl)-2-((3-chloroquinolin-6-yl)methyl)isonicotinamide]	< 100 nM	< 100 nM	–
O=C(NCc1cnc2[nH]cc(Cl)c2c1)c1ccnc(Cc2ccc3ncc(Cl)cc3c2)c1 [Example 38, N-(3-Chloro-1H-pyrrolo[2,3-b]pyridin-5-ylmethyl)-2-(3-chloro-quinolin-6-ylmethyl)-isonicotinamide]	< 100 nM	100 to 1000 nM	–
O=C(NCc1ccc2[nH]cc(Cl)c2c1F)c1ccnc(Cc2ccc3ncc(Cl)cc3c2)c1 [Example 40, N-(3-Chloro-4-fluoro-1H-indol-5-ylmethyl)-2-(3-chloro-quinolin-6-ylmethyl)-isonicotinamide]	< 100 nM	100 to 1000 nM	–
Cc1nc(N)ccc1CNC(=O)c1ccnc(Cc2cc(C#N)c3ncc(Cl)cc3c2)c1 [Example 56, N-(6-amino-2-methyl-pyridin-3-ylmethyl)-2-(3-chloro-8-cyano-quinolin-6-ylmethyl)-isonicotinamide]	–	–	100 to 1000 nM
N#Cc1cc(Cc2cc(C(=O)NCc3ccc4c(N)nccc4c3)ccn2)cc2cc(Cl)cnc12 [Example 57, N-(1-amino-isoquinolin-6-ylmethyl)-2-(3-chloro-8-cyano-quinolin-6-ylmethyl)-isonicotinamide]	< 100 nM	–	100 to 1000 nM
NC(=O)c1cc(Cc2cc(C(=O)NCc3cc4c(Cl)c[nH]c4cc3F)ccn2)cc2cc(Cl)cnc12 [Example 59, 3-chloro-6-((4-(((3-chloro-6-fluoro-1H-indol-5-yl)methyl)carbamoyl)pyridin-2-yl)methyl)quinoline-8-carboxamide]	< 100 nM	100 to 1000 nM	–
NC(=O)c1cc(Cc2cc(C(=O)NCc3n[nH]c4ccc(Cl)cc34)ccn2)cc2cc(Cl)cnc12 [Example 60, 3-chloro-6-((4-(((5-chloro-1H-indazol-3-yl)methyl)carbamoyl)pyridin-2-yl)methyl)quinoline-8-carboxamide]	< 100 nM	100 to 1000 nM	–
NC(=O)c1cc(Cc2cc(C(=O)NCc3cnc4[nH]cc(Cl)c4c3)ccn2)cc2cc(Cl)cnc12 [Example 61, 3-chloro-6-((4-(((3-chloro-1H-pyrrolo[2,3-b]pyridin-5-yl)methyl)carbamoyl)pyridin-2-yl)methyl)quinoline-8-carboxamide]	< 100 nM	100 to 1000 nM	–
Cc1nc(N)ccc1CNC(=O)c1ccnc(Cc2cc(C(N)=O)c3ncc(Cl)cc3c2)c1 [Example 62, 6-((4-(((6-amino-2-methylpyridin-3-yl)methyl)carbamoyl)pyridin-2-yl)methyl)-3-chloroquinoline-8-carboxamide]	< 100 nM	< 100 nM	–
NC(=O)c1cc(Cc2cc(C(=O)NCc3ccc4c(N)nccc4c3)ccn2)cc2cc(Cl)cnc12 [Example 64, 6-((4-(((1-aminoisoquinolin-6-yl)methyl)carbamoyl)pyridin-2-yl)methyl)-3-chloroquinoline-8-carboxamide]	< 100 nM	< 100 nM	–
NC(=O)c1cc(Cc2cc(C(=O)NCc3ccc4[nH]cc(Cl)c4c3F)ccn2)cc2cc(Cl)cnc12 [Example 65, 3-chloro-6-((4-(((3-chloro-4-fluoro-1H-indol-5-yl)methyl)carbamoyl)pyridin-2-yl)methyl)quinoline-8-carboxamide]	< 100 nM	< 100 nM	–
NC(=O)c1cc(Cc2cc(C(=O)NCc3cc4cc[nH]c4cc3F)ccn2)cc2cc(Cl)cnc12 [Example 66, 3-chloro-6-((4-(((6-fluoro-1H-indol-5-yl)methyl)carbamoyl)pyridin-2-yl)methyl)quinoline-8-carboxamide]	< 100 nM	100 to 1000 nM	–
Cc1cc(N)nc(C)c1CNC(=O)c1ccnc(Cc2ccc3nccc(C#N)c3c2)c1 [Example 138, N-((6-amino-2,4-dimethylpyridin-3-yl)methyl)-2-((4-cyanoquinolin-6-yl)methyl)isonicotinamide]	< 100 nM	–	–
Nc1nccc2cc(CNC(=O)c3ccnc(Cc4cnc5cc(Cl)ccc5c4)c3)ccc12 [Example 139, N-((1-aminoisoquinolin-6-yl)methyl)-2-((7-chloroquinolin-3-yl)methyl)isonicotinamide]	< 100 nM	–	–
O=C(NCc1cc2c(Cl)c[nH]c2cc1F)c1ccnc(Cc2cnc3cc(Cl)ccc3c2)c1 [Example 140, N-((3-chloro-6-fluoro-1H-indol-5-yl)methyl)-2-((7-chloroquinolin-3-yl)methyl)isonicotinamide]	< 100 nM	–	–
Cc1cc(N)nc(C)c1CNC(=O)c1ccnc(Cc2cnc3cc(Cl)ccc3c2)c1 [Example 141, N-((6-amino-2,4-dimethylpyridin-3-yl)methyl)-2-((7-chloroquinolin-3-yl)methyl)isonicotinamide]	< 100 nM	–	–
NCc1ccc2cc(Cc3cc(C(=O)NCc4ccc5c(N)nccc5c4)ccn3)ccc2n1 [Example 146, N-((1-aminoisoquinolin-6-yl)methyl)-2-((2-(aminomethyl)quinolin-6-yl)methyl)isonicotinamide]	100 to 1000 nM	–	–
